Laboratory results: patent publication US3978225A, “Heterocyclic homoprostanoidal derivatives” (SmithKline Corporation, priority 1975, dated 1976)
Each block holds one molecule with its values, some of them ahead of it.

How the values were obtained:
prostaglandin synthesis = assay: Inhibition of prostaglandin synthesis (arachidonic acid-dependent formation of adrenochrome from L-epinephrine); type: biochemical; settings: for Inhibition of prostaglandin synthesis: 1000 μM; for IC50: read-out: ID50, inhibition of prostaglandin synthesis
Text: The prostaglandin synthesis inhibition method as employed is reported by Takeguchi and Sih, Prastaglandins, 2, 169, 1972. The principle entails the arachidonic acid-dependent formation of adrenochrome from L-epinephrine during prostaglandin biosynthesis. Indomethacin, phenylbutazone and aspirin were used as reference compounds.

[1] = tested on: diarrhea induced by prostaglandin E2 (PGE2); assay: Inhibition of PGE2 diarrhea in mice; type: in vivo; settings: 15 minutes prior to i.p. PGE2
Method: The antagonism of diarrhea induced by prostaglandin E2 (PGE2) was determined by employing the modified standard animal pharmacological test procedure as reported in Intra Science Chem. Rept 6:1-9, 1972 and Annals of the New York Academy of Sciences 180:386-95, 1971. Briefly the test comprises administering the test compounds subcutaneously 15 minutes prior to an intraperitoneal injection of PGE2. Each animal is examined for diarrhea (which results after the administration of PGE2) every 15 minutes for one hour post-drug. Polyphloretin phosphate and 7 oxa-13-prostynoic acid, both well known antagonists of prostaglandin induced diarrhea, were employed as reference compounds. Results of tests conducted for the inhibition of PGE2 diarrhea in mice are disclosed in Table 2.

Molecule: CCCCCCCC[C@@H]1OS(=O)O[C@H]1CCCCCCCC(=O)OC (relative stereo) [Compound C]
- Inhibition of prostaglandin synthesis (prostaglandin synthesis): 20%
- Percent Change, Diarrhea Incidence ([1]; 5 mg/kg S.C.): +15%
- Percent Change, Diarrhea Incidence ([1]; 10 mg/kg S.C.): -31%
- Percent Change, Diarrhea Incidence ([1]; 20 mg/kg S.C.): -54%
- Percent Change, Diarrhea Incidence ([1]; 40 mg/kg S.C.): -8%

- IC50 (prostaglandin synthesis): 390 µM
Molecule: CCCCCCCC[C@@H]1SC(=S)S[C@H]1CCCCCCCC(=O)O (relative stereo) [Compound E, (8.xi.-trans)-10-thioxo-9,11-dithia-1a-homoprostan-1-oic acid]

Molecule: CCCCCCCC[C@@H]1OCO[C@H]1CCCCCCCC(=O)O (relative stereo) [Compound F, (8.xi.-trans)-9,11-dioxa-1a-homoprostan-1-oic acid]
- Inhibition of prostaglandin synthesis (prostaglandin synthesis): 30%
- Percent Change, Diarrhea Incidence ([1]; 5 mg/kg S.C.): 0%
- Percent Change, Diarrhea Incidence ([1]; 10 mg/kg S.C.): -36%
- Percent Change, Diarrhea Incidence ([1]; 20 mg/kg S.C.): 0%
- Percent Change, Diarrhea Incidence ([1]; 40 mg/kg S.C.): -14%

Molecule: CCCCCCCC[C@@H]1OS(=O)O[C@@H]1CCCCCCCC(=O)OC (relative stereo) [Compound G, (8.xi.-cis)-10-oxo-9,11-dioxa-10-thia-1a-homoprostan-1-oic acid, methyl ester]
- Percent Change, Diarrhea Incidence ([1]; 5 mg/kg S.C.): -14%
- Percent Change, Diarrhea Incidence ([1]; 10 mg/kg S.C.): -29%
- Percent Change, Diarrhea Incidence ([1]; 20 mg/kg S.C.): -57%
- Percent Change, Diarrhea Incidence ([1]; 40 mg/kg S.C.): 0%

Molecule: CCCCCCC#C[C@H]1CCC[C@@H]1OCCCCCC(=O)O [7-oxa-13-prostynoic acid, reference compound]
- Percent Change, Diarrhea Incidence ([1]; 0.2 mg/kg S.C.): -15%
- Percent Change, Diarrhea Incidence ([1]; 1 mg/kg S.C.): -100%
- Percent Change, Diarrhea Incidence ([1]; 5 mg/kg S.C.): -100%

Molecule: CC(=O)Oc1ccccc1C(=O)O [Aspirin, reference compound]
- IC50 (prostaglandin synthesis): 3700 µM

Molecule: COc1ccc2c(c1)c(CC(=O)O)c(C)n2C(=O)c1ccc(Cl)cc1 [Indomethacin, reference compound]
- IC50 (prostaglandin synthesis): 2 µM

- IC50 (prostaglandin synthesis): 875 µM
Molecule: CCCCC1C(=O)N(c2ccccc2)N(c2ccccc2)C1=O [Phenylbutazone, reference compound]

Molecule: polyphloretin phosphate [PPP, reference compound]
- Percent Change, Diarrhea Incidence ([1]; 5 mg/kg S.C.): -4%
- Percent Change, Diarrhea Incidence ([1]; 10 mg/kg S.C.): -26%
- Percent Change, Diarrhea Incidence ([1]; 20 mg/kg S.C.): -36%
- Percent Change, Diarrhea Incidence ([1]; 40 mg/kg S.C.): -65%
- Percent Change, Diarrhea Incidence ([1]; 80 mg/kg S.C.): -68%
